From US11021753B2, “Mutant genes related to drug resistance and relapse of acute lymphoblastic leukaemia and a use thereof” (SHANGHAI CHILDREN'S MEDICAL CENTER, SHANGHAI JIAO TONG …, priority 2015, dated 2021)
Where two headings read alike, the source gives them in different places.

Assays:
[1] = test system: Reh cells expressing different PRPS1 mutant genes; assay: Drug susceptibility test of 6-MP / 6-TG (cell survival, CellTiter-Glo); type: cell-based, human; settings: Reh cells expressing PRPS1 mutant genes compared with control group expressing empty load; 72 hours
Method: Reh cells are a strain of human acute B lymphoblastic leukemia. The susceptibility of the PRPS1 mutant to the chemotherapeutic drug 6-MP was determined by the survival rate of Reh cells expressing different PRPS1 mutant genes which were treated by chemotherapeutic drug 6-MP, wherein the process comprises steps of
(i) Cell inoculation: Reh cells expressing the PRPS1 wild-type and all kinds of PRPS1 mutants were counted and seeded into 96-well plates with inoculated 10^4 cells per well. Five parallel wells were designed.
Drugs were added into 96-well plates with grown cells and incubated at 37° C. for 72 hours.
The susceptibility of the PRPS1 mutant to the chemotherapeutic drug 6-TG was determined by the survival rate of Reh cells expressing different PRPS1 mutant genes which were treated by chemotherapeutic drug 6-TG, in which the process comprises steps of
(i) Cell inoculation: Reh cells expressing the PRPS1 wild-type and all kinds of PRPS1 mutants were counted and seeded into 96-well plates with inoculated 10^4 cells per well. Five parallel wells were set up.
Drug were added into 96-well plates with grown cells and incubated at 37° C. for 72 hours.

[2] = test system: Reh cells expressing PRPS1 mutant genes; assay: Identification of cells apoptosis (Annexin V / 7-AAD flow cytometry); type: cell-based, human; settings: 10 μg/ml 6-MP or 6-TG, 72 hours; cells expressing PRPS1 mutant genes compared with control group expressing empty load
Method: (i) Cell inoculation: Reh cells expressing the PRPS1 wild-type and various PRPS1 mutants were counted and seeded into 12-well plates with inoculated 3×10^5 cells per well. Duplicated wells were set up.
(ii) Cell treatment: the drug 6-MP or 6-TG with concentration of 10 μg/ml was added to a 12-well plate with grown cells and incubated at 37° C. for 72 hours.
(iii) Cell staining: After 72 hours, the cells were collected by centrifugation, washed with PBS buffer, added in […] and 7-AAD dye labeled with PE from BD, and incubated for 15 minutes at room temperature. The cells were centrifuged to discard the supernatant and washed twice with PBS. (iv) Identification by Flow Cytometer: proportion of cell apoptosis was determined using Flow Cytometer from Canto II BD.

[3] = test system: Reh cells expressing PRPS1 mutants; assay: Identification of intracellular metabolites of 6-MP by LC-MS; type: cell-based, human; settings: 10 μM 6-MP, 4 hours; mutants in experimental groups compared with control group
Method: 6-MP is a prodrug and needs to be undergone metabolic reactions in vivo to form TIMP and TGMP before it works, as shown in FIG. 9C. The identification procedure is as follows:
(i) Cell inoculation: Reh cells expressing the PRPS1 wild-type and various PRPS1 mutants were counted and seeded into 6 cm culture dish with inoculated 3×10^6 cells in each plate.
(ii) Cell treatment: 10 μM chemotherapy drug 6-MP was added into each 6 cm culture dish and treated for 4 hours;
(iii) Cell collection: The cells were transferred to a centrifuge tube, centrifuged at 3,000 g for 5 minutes to remove the supernatant, and lysed at 3×10^6 cells per 200 μl 80% methanol;
(iv) The amounts of metabolites from chemotherapeutic drugs 6-MP, TIMP, TGMP, r-MP, r-TG and r-MMP were measured by LC-MS (ABI 5500 Qtrap coupled with Waters Acquity UPLC), and standard curve for quantification was made using TIMP (Jean Bioscience, […], r-TG (Sigma, cat #858412), r-MMP (Sigma, cat #M4002) respectively.

[4] = test system: PRPS1 loss-of-function mutants A87T and M115T; assay: Inhibition of GDP/ADP on PRPS1 protein activity in vitro (Kinase-Glo); type: biochemical, human; settings: known loss-of-function mutants A87T and M115T compared with wild-type
Method: (§1) ATP (Item No. A7699), ADP (Item No. A2754), GDP (Item No. G7172) and ribose-5-phosphate (Item No. R7750) were purchased from Sigma. The reaction system comprised 50 mM Tris pH 7.5, 2 mM phosphate, 1 mM DTT, 10 mM MgCl2, 0.5 mM ribose-5-phosphate, 0.5 mM ATP and PRPS1 protein.
(§2) (ii) Inhibition of GDP/ADP on PRPS1 protein activity: 3 times gradient dilution of the GDP/ADP with an initial concentration of 5 mM And 15 μL of PRPS1 in vitro enzyme reaction system was prepared, added into 384-well plate, and reacted at 37° C. for 30 minutes. Then 10 μL of Kinase-Glo reagent (Item No. V3722) from Promega was added reacted at 37° C. for 15 minutes to terminate the reaction. The chemiluminescence values can be read in a microplate reader, and the inhibition of GDP/ADP on PRPS1 protein activity was calculated by Graphpad 5.0.

[5] = test system: PRPS1 mutants S103T, 5103N, N144S, T303S, K176N, D183E, A190T, A190V, L191F; assay: as above; type: biochemical, human; settings: relapse-specific PRPS1 mutants compared with PRPS1 wild-type
Method: as §1, §2

[6] = test system: Reh cells expressing PRPS1 mutant genes; assay: Cell-level feedback regulation of PRPS1 activity by GDP/ADP (13C5-PRPP by LC-MS); type: cell-based, human; settings: each PRPS1 mutant gene in experimental group; 2 mM ADP or 0.5 mM GDP, 4 hours
Method: (§3) In the present invention, the intracellular activity of PRPS1 was detected by means of isotope labeling in combination with the technologies of cell biology and metabolomics, and based on this, the effect of nucleotide GDP/ADP on PRPS1 activity was evaluated. The preferred embodiment is as follows:
(§4) (i) Cell culture: Reh cells expressing the PRPS1 wild-type and various PRPS1 mutants were counted and seeded into 6 cm culture dish, and 3×10^6 cells were inoculated in each well.
(§5) (ii) Cell treatment: 2 mM ADP or 0.5 mM GDP was added to the culture dish and cells were treated for 4 hours, after that, the cells were resuspended using glucose-free medium (Gibco, cat #11879-020), and 10 mM glucose labeled with ^13C6 was added into each 6 cm culture dish (Cambridge isotope laboratories, cat #CLM-1396-1) and labeled for 5 minutes. (iii) Cell collection: The cells were transferred to a centrifuge tube, centrifuged at 3,000 g for 5 minutes, the supernatant was removed, and the cells were lysed using 3×10^6 cells/200 μl 80% methanol. (iv) The level of ^13C5-PRPP was detected by LC-MS (ABI 5500 Qtrap coupled with Waters Acquity UPLC), and standard curve quantification was made using PRPP (sigma, cat #P8296). The activity of PRPS1 was determined according to the level of PRPP.

[7] = test system: Reh cells expressing the PRPS1 wild-type; assay: as above; type: cell-based, human; settings: wild-type experimental group; 2 mM ADP or 0.5 mM GDP, 4 hours
Method: as §3, §4, §5

HGPRT = HGPRT (Homo sapiens, UniProt P00492); settings: for TIMP generation (6-MP conversion by HGPRT): 100 μM 6-MP as reaction substrate, increased concentration of hypoxanthine; for affinity to HGPRT (Km): compared with that of 6-MP and HGPRT
Method: Chemotherapeutic drug 6-MP is an analog of hypoxanthine, and both 6-MP and hypoxanthine are substrates of HGPRT. The present invention established an in vitro enzymatic reaction to determine the Km value of 6-MP and hypoxanthine reacting with HGPRT, respectively, which reflects the affinity of HGPRT to hypoxanthine and 6-MP. The preferred embodiment is as follows:
The specific reaction system is as follows:
Hypoxanthine and 6-MP were diluted in a concentration gradient, reacted at 37° C. for 1 hour, and 80% methanol was added to terminate the reaction. The contents of IMP and TIMP were detected by LC-MS. The reaction curves were plotted and the Km values of hypoxanthine and 6-MP were calculated by Graphpad 5.0 software.

Reh-PRPS1-A190T cells [8] = assay: Concentration of 6-MP metabolites in cells treated with Lometrexol (LC-MS); type: cell-based, human; settings: Reh-PRPS1-A190T treated with Lometrexol vs control
From the text: (§6) (v) Determining the concentration of 6-MP metabolites: the same as Embodiment 13.

Reh-PRPS1-S103T cells [9] = assay: as above; type: cell-based, human; settings: Reh-PRPS1-S103T treated with Lometrexol vs control
From the text: as §6

Reh-PRPS1-A190T cells [10] = assay: Intracellular concentration of hypoxanthine in cells treated with Lometrexol (LC-MS); type: cell-based, human; settings: Reh-PRPS1-A190T treated with Lometrexol vs control
Method: (§7) (iii) Cell collection: cells were pipetted out from the well and centrifuged at 1500 rpm to remove the supernatant. The cells were washed with PBS once, and centrifuged again (500 g). Removed the supernatant.
(§8) (iv) Cell lysis: the cells were lysed using 200 μl 80% methanol per 3×10^6 cells.
(§9) (v) The lysed cells were centrifuged by 14,000 g at 4° C. for 10 minutes, and then the supernatant was transferred to a 1.5 ml EP tube.
(§10) (vi) The contents of hypoxanthine, AICAR and Inosine were detected by LC-MS technology (ABI 5500 Qtrap coupled with Waters Acquity UPLC), and standard curves for absolute quantification were made using ^13C5, ^15N4-hypoxanthine (Cambridge isotope laboratories, cat #489522), AICAR (sigma, cat #A9978) and Inosine (Sigma, cat #I4125), respectively.
(§11) (vi) Determining the intracellular concentration of hypoxanthine: the same as Embodiment 14.

Reh-PRPS1-S103T cells [11] = assay: as above; type: cell-based, human; settings: Reh-PRPS1-S103T treated with Lometrexol vs control
Method: as §7, §8, §9, §10, §11

Sequence of HGPRT (P00492 whole entry): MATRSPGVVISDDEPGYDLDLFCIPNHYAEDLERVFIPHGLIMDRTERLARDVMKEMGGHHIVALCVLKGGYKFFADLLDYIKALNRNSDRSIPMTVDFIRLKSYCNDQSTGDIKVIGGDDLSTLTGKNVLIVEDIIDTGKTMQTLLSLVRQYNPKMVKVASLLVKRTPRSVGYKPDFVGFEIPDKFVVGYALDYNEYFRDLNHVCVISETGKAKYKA

Row | Compound | IC50 values of drug [1] | apoptotic ratio of cells [2] | inhibition of GDP/ADP on PRPS1 protein activity [4] | inhibition of GDP/ADP on PRPS1 protein activity [5] | concentration of PRPP product after adding the nucleotide [6] | concentration of PRPP after adding the nucleotide [7] | further results
1 | Sc1ncnc2nc[nH]c12 [6-MP, 6-mercaptopurine] | significantly increased | significantly down-regulated | – | – | – | – | contents of 6-MP metabolites TIMP, TGMP and r-MP, r-TG and r-MMP in cells [3]: significantly lower
2 | Nc1nc2nc[nH]c2c(=S)[nH]1 [6-TG, 6-thioguanine] | significantly increased | significantly down-regulated | – | – | – | – | –
3 | Nc1ncnc2c1ncn2[C@@H]1O[C@H](COP(=O)(O)OP(=O)(O)O)[C@@H](O)[C@H]1O [ADP] | – | – | no significant difference | significantly lower | not affected | decreased | –
4 | Nc1nc2c(ncn2[C@@H]2O[C@H](COP(=O)(O)OP(=O)(O)O)[C@@H](O)[C@H]2O)c(=O)[nH]1 [GDP] | – | – | no significant difference | significantly lower | not affected | decreased | –
5 | O=c1[nH]cnc2nc[nH]c12 [hypoxanthine] | – | – | – | – | – | – | TIMP generation (6-MP conversion by HGPRT) (HGPRT): significantly inhibited; TIMP generation (6-MP conversion by HGPRT) (HGPRT; listed as HX): can suppress; affinity to HGPRT (Km) (HGPRT): significantly higher; affinity to HGPRT (Km) (HGPRT; listed as HX): preferred to 6-MP
6 | Lometrexol | – | – | – | – | – | – | intracellular levels of 6-MP metabolites TIMP and TGMP (Reh-PRPS1-A190T cells [8]): significantly increased; intracellular levels of 6-MP metabolites TIMP and TGMP (Reh-PRPS1-S103T cells [9]): significantly increased; concentration of hypoxanthine (Reh-PRPS1-A190T cells [10]): significantly decreased; concentration of hypoxanthine (Reh-PRPS1-S103T cells [11]): significantly decreased
